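Method: 48-hour compound exposure of cells in 96-well plates, five concentrations, linear interpolation of endpoints. TGI is the concentration that stops growth completely.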
Tests used:
Assay in all cases: NCI anticancer screen, dose series, 48 h
[1] = system: 786-0 renal
[2] = system: A498 renal
[3] = system: A549 NSCLC
[4] = system: ACHN renal
[5] = system: BT-549 breast
[6] = system: CAKI-1 renal
[7] = system: CCRF-CEM leukemia
[8] = system: COLO 205 colon
[9] = system: DU-145 prostate
[10] = system: EKVX NSCLC
[11] = system: HCC-2998 colon
[12] = system: HCT-116 colon
[13] = system: HCT-15 colon
[14] = system: HOP-62 NSCLC
[15] = system: HS 578T breast
[16] = system: HT29 colon
[17] = system: IGROV1 ovarian
[18] = system: K-562 leukemia
[19] = system: KM12 colon
[20] = system: LOX IMVI melanoma
[21] = system: M14 melanoma
[22] = system: MALME-3M melanoma
[23] = system: MCF7 breast
[24] = system: MDA-MB-231 breast
[25] = system: MDA-MB-435
[26] = system: MDA-N
[27] = system: MOLT-4 leukemia
[28] = system: NCI-H23 lung
[29] = system: NCI-H460 lung
[30] = system: NCI-H522 lung
[31] = system: NCI/ADR-RES ovarian
[32] = system: OVCAR-3 ovarian
[33] = system: OVCAR-4 ovarian
[34] = system: OVCAR-5 ovarian
[35] = system: OVCAR-8 ovarian
[36] = system: PC-3 prostate
[37] = system: RPMI-8226 leukemia
[38] = system: RXF 393 renal
[39] = system: SF-268 CNS
[40] = system: SF-295 CNS
[41] = system: SF-539 CNS
[42] = system: SK-MEL-2 melanoma
[43] = system: SK-MEL-28 melanoma
[44] = system: SK-MEL-5 melanoma
[45] = system: SK-OV-3 ovarian
[46] = system: SN12C renal
[47] = system: SNB-19 CNS
[48] = system: SR leukemia
[49] = system: SW-620 colon
[50] = system: T-47D breast
[51] = system: TK-10 renal
[52] = system: U251 CNS
[53] = system: UACC-257 melanoma
[54] = system: UACC-62 melanoma
[55] = system: UO-31 renal
[56] = system: HL-60(TB) leukemia
[57] = system: HOP-92 NSCLC
[58] = system: NCI-H226 lung
[59] = system: SNB-75 CNS

Clc1ccc(-c2nc(-c3ccc(Cl)cc3)[s+]s2)cc1
TGI [1]: > 100 µM | TGI [2]: > 100 µM | TGI [3]: > 100 µM | TGI [4]: > 100 µM | TGI [5]: > 100 µM | TGI [6]: > 100 µM | TGI [7]: 98.6 µM | TGI [8]: > 100 µM | TGI [9]: > 100 µM | TGI [10]: > 100 µM | TGI [11]: > 100 µM | TGI [12]: > 100 µM | TGI [13]: > 100 µM | TGI [14]: > 100 µM | TGI [15]: > 100 µM | TGI [16]: > 100 µM | TGI [17]: > 100 µM | TGI [18]: > 100 µM | TGI [19]: > 100 µM | TGI [20]: > 100 µM | TGI [21]: > 100 µM | TGI [22]: 77.7 µM | TGI [23]: > 100 µM | TGI [24]: > 100 µM | TGI [25]: > 100 µM | TGI [26]: > 100 µM | TGI [27]: > 100 µM | TGI [28]: > 100 µM | TGI [29]: > 100 µM | TGI [30]: > 100 µM | TGI [31]: > 100 µM | TGI [32]: > 100 µM | TGI [33]: 98.9 µM | TGI [34]: > 100 µM | TGI [35]: > 100 µM | TGI [36]: > 100 µM | TGI [37]: 90.6 µM | TGI [38]: > 100 µM | TGI [39]: > 100 µM | TGI [40]: > 100 µM | TGI [41]: > 100 µM | TGI [42]: > 100 µM | TGI [43]: > 100 µM | TGI [44]: > 100 µM | TGI [45]: > 100 µM | TGI [46]: > 100 µM | TGI [47]: > 100 µM | TGI [48]: 94.2 µM | TGI [49]: > 100 µM | TGI [50]: > 100 µM | TGI [51]: 86.5 µM | TGI [52]: > 100 µM | TGI [53]: > 100 µM | TGI [54]: > 100 µM | TGI [55]: > 100 µM

O=C1/C(=C\c2cccs2)Oc2ccccc21
TGI [1]: > 100 µM | TGI [2]: > 100 µM | TGI [3]: > 100 µM | TGI [4]: > 100 µM | TGI [5]: > 100 µM | TGI [6]: > 100 µM | TGI [7]: > 100 µM | TGI [8]: > 100 µM | TGI [9]: > 100 µM | TGI [10]: > 100 µM | TGI [11]: > 100 µM | TGI [12]: > 100 µM | TGI [13]: > 100 µM | TGI [56]: > 100 µM | TGI [14]: > 100 µM | TGI [57]: 89 µM | TGI [15]: > 100 µM | TGI [16]: > 100 µM | TGI [17]: > 100 µM | TGI [18]: > 100 µM | TGI [19]: > 100 µM | TGI [20]: > 100 µM | TGI [21]: > 100 µM | TGI [23]: > 100 µM | TGI [24]: > 100 µM | TGI [25]: > 100 µM | TGI [26]: > 100 µM | TGI [27]: > 100 µM | TGI [58]: > 100 µM | TGI [28]: > 100 µM | TGI [29]: > 100 µM | TGI [30]: > 100 µM | TGI [31]: > 100 µM | TGI [32]: > 100 µM | TGI [33]: > 100 µM | TGI [34]: > 100 µM | TGI [35]: > 100 µM | TGI [36]: > 100 µM | TGI [37]: > 100 µM | TGI [38]: > 100 µM | TGI [39]: > 100 µM | TGI [40]: > 100 µM | TGI [42]: > 100 µM | TGI [43]: > 100 µM | TGI [44]: > 100 µM | TGI [45]: > 100 µM | TGI [46]: > 100 µM | TGI [47]: > 100 µM | TGI [59]: > 100 µM | TGI [48]: > 100 µM | TGI [49]: > 100 µM | TGI [50]: 10.8 µM | TGI [51]: > 100 µM | TGI [52]: > 100 µM | TGI [53]: > 100 µM | TGI [54]: > 100 µM | TGI [55]: 83.3 µM

— PubChem BioAssay (NCI)
